Measurements from patent publication EP2705856A1, “Compounds for the treatment of neurodegenerative disorders” (Deutsches Zentrum für Neurodegenerative Erkrankungen e.V., priority 2012, dated 2014).
Read-outs that look alike come from different tables or passages of the source.

What was measured:
[1] = target: hFKBP12 (Homo sapiens, UniProt P62942); assay: Protease-coupled PPIase assay, FKBP12; assay type: biochemical; conditions: Example 3; read-out: IC50 value, inhibition of PPlase activity of FKBP12
Sequence of hFKBP12 (P62942 whole entry): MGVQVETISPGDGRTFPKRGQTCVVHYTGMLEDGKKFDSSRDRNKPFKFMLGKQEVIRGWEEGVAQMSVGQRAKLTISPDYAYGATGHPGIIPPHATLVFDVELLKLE
Experimental: The PPlase activity of hFKBP12 and hCypA was determined by using the protease-coupled PPlase assay as described by Fischer, H. Bang, B. Ludwig, K. Mann, J. Hacker, Mol. Microbiol. 1992, 6, 1375-1383. […] Then reaction was started by addition of 100 µg/mL of the isomer specific protease chymotrypsin, and the release of 4-nitroaniline was monitored by measuring the absorbance at 390 nm. […] Since tested PPlases vary in there catalytic efficiencies, different substrates has to be used to ensure equal rate constants of catalyzed cis/trans isomerization (Table 1). […] Table 1. Substrates for the respective PPlases

[2] = target: hCypA (Homo sapiens, UniProt P62937); assay: Protease-coupled PPIase assay, CypA; assay type: biochemical
Sequence of hCypA (P62937 whole entry): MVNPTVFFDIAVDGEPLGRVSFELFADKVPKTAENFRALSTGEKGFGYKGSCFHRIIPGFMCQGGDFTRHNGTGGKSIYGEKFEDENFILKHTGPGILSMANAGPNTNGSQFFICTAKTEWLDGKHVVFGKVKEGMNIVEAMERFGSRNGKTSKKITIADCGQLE
Experimental: The PPlase activity of hFKBP12 and hCypA was determined by using the protease-coupled PPlase assay as described by Fischer, H. Bang, B. Ludwig, K. Mann, J. Hacker, Mol. Microbiol. 1992, 6, 1375-1383. To study the effect of compounds 7-10 on PPlase activity, 100 nM of each hFKBP and 5 nM of each hCyp, respectively and 40 µM peptide substrate were preincubated in the presence or absence of various inhibitor concentrations for 6 min at 10 °C in 35mM HEPES/NaCl buffer (pH 7.5). Then reaction was started by addition of 100 µg/mL of the isomer specific protease chymotrypsin, and the release of 4-nitroaniline was monitored by measuring the absorbance at 390 nm. To achieve better comparability of compounds 7-10 effects on PPlase activity, the concentrations of FKBP and Cyp were kept constant at 100 nM and 5 nM, respectively. Since tested PPlases vary in there catalytic efficiencies, different substrates has to be used to ensure equal rate constants of catalyzed cis/trans isomerization (Table 1). […] Table 1. Substrates for the respective PPlases

Structure (SMILES) | IC50 [1] | IC50 ([2]; read-out: /C50-values, inhibition of PPlase activity of hCypA, Example 1, Figure 1: hCypA 5 nM, substrate suc-Ala-Ala-Pro-Phe-pNA) | IC50 ([2]; read-out: IC50 value, inhibition of CypA, Example 3)
C[C@@H]1C[C@@H]([C@H](O)CC2CC(=O)N(CC(=O)N(C)C)C(=O)C2)C(=O)[C@@H](C)C1 [DM-CHX, N-(N,N-Dimethylcarboxamidomethyl)cycloheximid] | 36.9 ± 17.1 nM | – | –
C/C=C/C[C@@H](C)[C@@H](O)[C@H]1C(=O)N[C@@H](CC)C(=O)N(C)CC(=O)N(C)[C@@H](CC(C)C)C(=O)N[C@@H](C(C)C)C(=O)N(C)[C@@H](CC(C)C)C(=O)N[C@@H](C)C(=O)N[C@H](CO)C(=O)N(C)[C@@H](CC(C)C)C(=O)N(C)[C@@H](CC(C)C)C(=O)N(C)[C@@H](C(C)C)C(=O)N1C [[D-Ser^8]-CsA] | – | 8.3 ± 1.4 nM | 1.5 ± 0.4 nM
